# *1 amine or outer side, *2 acyl side, *3 side chain or, on linkers, in order; H or OH if unused. Where a SMILES comes first, the peptide text is derived from it. Side-chain parts run from the residue outwards. The star is where a group is joined. C18 diacid = O=C(O)CCCCCCCCCCCCCCCCC(=O)*; γGlu = O=C(O)[C@H](CCC(=O)[*:2])N[*:1]; Isovaleryl = CC(C)CC(=O)*; AEEA = NCCOCCOCC(=O)O
# Target: T1, Human Neuropeptide Y2 Receptor (Homo sapiens, UniProt P49146)
# T1 construct: purchased CHEMICON HTS066M
# T1 sequence (P49146 1-381): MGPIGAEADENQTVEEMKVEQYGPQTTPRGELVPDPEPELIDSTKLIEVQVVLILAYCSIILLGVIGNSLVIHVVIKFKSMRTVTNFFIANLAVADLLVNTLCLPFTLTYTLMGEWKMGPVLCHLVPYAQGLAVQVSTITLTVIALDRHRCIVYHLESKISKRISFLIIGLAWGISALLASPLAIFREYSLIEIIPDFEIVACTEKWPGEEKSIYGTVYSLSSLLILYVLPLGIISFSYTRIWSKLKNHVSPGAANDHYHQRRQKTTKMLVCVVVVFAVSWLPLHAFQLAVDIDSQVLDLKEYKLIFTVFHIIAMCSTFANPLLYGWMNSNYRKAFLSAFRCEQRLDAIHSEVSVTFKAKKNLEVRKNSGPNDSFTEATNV
# Experiment: Radioligand binding competition assay (RLB)
# Details: Table 3; human 125I-PYY (1-36) 0.02 nM, Y2 receptor membranes; read-out: Ki
# Outline: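 Competition binding at commercial human NPY Y2 membrane preparations, 0.5 μg protein per well, 2 h incubation at room temperature. Bound and free ligand were separated on GF/C filters and counted; IC50 was fitted by nonlinear regression.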
row,Ki [nM],SMILES
1,8.53,"CC(C)CC(=O)N[C@@H](C)C(=O)N1CCC[C@H]1C(=O)N[C@@H](CCC(=O)O)C(=O)N[C@@H](CCCCNC(=O)COCCOCCNC(=O)COCCOCCNC(=O)CC[C@H](NC(=O)CCCCCCCCCCCCCCCCC(=O)O)C(=O)O)C(=O)N[C@@H](C)C(=O)N[C@@H](CCC(=O)O)C(=O)N[C@@H](CCC(=O)O)C(=O)N[C@@H](CC(=O)O)C(=O)N[C@@H](C)C(=O)N[C@@H](CO)C(=O)N[C@@H](CCC(=O)O)C(=O)N[C@@H](CCC(=O)O)C(=O)N[C@@H](CCC(=O)O)C(=O)N[C@@H](CC(C)C)C(=O)N[C@@H](CCC(N)=O)C(=O)N[C@@H](CCCNC(=N)N)C(=O)N[C@@H](Cc1ccc(O)cc1)C(=O)N[C@@H](Cc1ccc(O)cc1)C(=O)N[C@H](C(=O)N[C@@H](CO)C(=O)N[C@@H](CC(C)C)C(=O)N[C@@H](CCCNC(=N)N)C(=O)N[C@@H](Cc1c[nH]cn1)C(=O)N[C@@H](Cc1ccc(O)cc1)C(=O)N[C@@H](Cc1ccc(O)cc1)C(=O)N[C@@H](CC(N)=O)C(=O)N[C@@H](Cc1c[nH]c2ccccc12)C(=O)N[C@@H](CC(C)C)C(=O)N[C@H](C(=O)N[C@@H](CCCNC(=N)N)C(=O)N[C@@H](CCC(N)=O)C(=O)N[C@@H](CCCNC(=N)N)C(=O)N[C@@H](Cc1ccc(O)cc1)C(N)=O)[C@@H](C)O)C(C)C [Compound 52, N{alpha-4}-(3-methylbutanoyl)-N{epsilon-7}-[2-(2-{2-[2-(2-{2-[(4S)-4-carboxy-4-(17-carboxyheptadecanamido)butanamido]ethoxy}ethoxy)acetamido]ethoxy}ethoxy)acetamido]-[4A,7K,8A,9E,14E,18Q,22V,28Y,30W,31L]hPYY (4-36)]"
2,3.35,"CC(C)CC(=O)N[C@@H](C)C(=O)N1CCC[C@H]1C(=O)N[C@@H](CCC(=O)O)C(=O)N[C@@H](CCCCNC(=O)COCCOCCNC(=O)COCCOCCNC(=O)CC[C@H](NC(=O)CCCCCCCCCCCCCCCCC(=O)O)C(=O)O)C(=O)N1CCC[C@H]1C(=O)N[C@@H](CCC(=O)O)C(=O)N[C@@H](CCC(=O)O)C(=O)N[C@@H](CC(=O)O)C(=O)N[C@@H](C)C(=O)N[C@@H](CO)C(=O)N1CCC[C@H]1C(=O)N[C@@H](CCC(=O)O)C(=O)N[C@@H](CCC(=O)O)C(=O)N[C@@H](C)C(=O)N[C@@H](CCC(N)=O)C(=O)N[C@@H](CCCNC(=N)N)C(=O)N[C@@H](Cc1ccc(O)cc1)C(=O)N[C@@H](Cc1ccc(O)cc1)C(=O)N[C@H](C(=O)N[C@@H](CO)C(=O)N[C@@H](CC(C)C)C(=O)N[C@@H](CCCNC(=N)N)C(=O)N[C@@H](Cc1c[nH]cn1)C(=O)N[C@@H](Cc1ccc(O)cc1)C(=O)N[C@@H](Cc1ccc(O)cc1)C(=O)N[C@@H](CC(N)=O)C(=O)N[C@@H](Cc1c[nH]c2ccccc12)C(=O)N[C@@H](CC(C)C)C(=O)N[C@H](C(=O)N[C@@H](CCCNC(=N)N)C(=O)N[C@@H](CCC(N)=O)C(=O)N[C@@H](CCCNC(=N)N)C(=O)N[C@@H](Cc1ccc(O)cc1)C(N)=O)[C@@H](C)O)C(C)C [Compound 55, N{alpha-4}-(3-methylbutanoyl)-N{epsilon-7}-[2-(2-{2-[2-(2-{2-[(4S)-4-carboxy-4-(17-carboxyheptadecanamido)butanamido]ethoxy}ethoxy)acetamido]ethoxy}ethoxy)acetamido]-[4A,7K,9E,17A,18Q,22V,28Y,30W,31L]hPYY (4-36)]"
3,5.95,"CC(C)CC(=O)N[C@@H](C)C(=O)N1CCC[C@H]1C(=O)N[C@@H](CCC(=O)O)C(=O)N[C@@H](CCCCNC(=O)COCCOCCNC(=O)COCCOCCNC(=O)CC[C@H](NC(=O)CCCCCCCCCCCCCCCCC(=O)O)C(=O)O)C(=O)N1CCC[C@H]1C(=O)N[C@@H](CCC(=O)O)C(=O)N[C@@H](CCC(=O)O)C(=O)N[C@@H](C)C(=O)N[C@@H](C)C(=O)N[C@@H](CO)C(=O)N1CCC[C@H]1C(=O)N[C@@H](CCC(=O)O)C(=O)N[C@@H](CCC(=O)O)C(=O)N[C@@H](CC(C)C)C(=O)N[C@@H](CCC(=O)O)C(=O)N[C@@H](CCC(N)=O)C(=O)N[C@@H](Cc1ccc(O)cc1)C(=O)N[C@@H](Cc1ccc(O)cc1)C(=O)N[C@H](C(=O)N[C@@H](CO)C(=O)N[C@@H](CC(C)C)C(=O)N[C@@H](CCCNC(=N)N)C(=O)N[C@@H](Cc1c[nH]cn1)C(=O)N[C@@H](Cc1ccc(O)cc1)C(=O)N[C@@H](Cc1ccc(O)cc1)C(=O)N[C@@H](CC(N)=O)C(=O)N[C@@H](Cc1c[nH]c2ccccc12)C(=O)N[C@@H](CC(C)C)C(=O)N[C@H](C(=O)N[C@@H](CCCNC(=N)N)C(=O)N[C@@H](CCC(N)=O)C(=O)N[C@@H](CCCNC(=N)N)C(=O)N[C@@H](Cc1ccc(O)cc1)C(N)=O)[C@@H](C)O)C(C)C [Compound 60, N{alpha-4}-(3-methylbutanoyl)-N{epsilon-7}-[2-(2-{2-[2-(2-{2-[(4S)-4-carboxy-4-(17-carboxyheptadecanamido)butanamido]ethoxy}ethoxy)acetamido]ethoxy}ethoxy)acetamido]-[4A,7K,9E,11A,18E,19Q,22V,28Y,30W,31L]hPYY (4-36)] (Isovaleryl-APEK([AEEA-AEEA-γGlu-C18 diacid])PEEAASPEELEQYYVSLRHYYNWLTRQRY-NH2)"
4,0.4,"CC[C@H](C)[C@H](NC(=O)[C@H](CCC(=O)O)NC(=O)[C@H](CCC(=O)O)NC(=O)[C@@H]1CCCN1C(=O)[C@H](CO)NC(=O)[C@H](C)NC(=O)[C@H](CC(=O)O)NC(=O)[C@H](CCC(=O)O)NC(=O)[C@@H]1CCCN1C(=O)[C@@H]1CCCN1C(=O)[C@H](CCCCNC(=O)COCCOCCNC(=O)COCCOCCNC(=O)CC[C@H](NC(=O)CCCCCCCCCCCCCCCCC(=O)O)C(=O)O)NC(=O)[C@H](CCC(=O)O)NC(=O)[C@@H]1CCCN1C(=O)[C@H](C)NC(=O)CC(C)C)C(=O)N[C@@H](CCC(N)=O)C(=O)N[C@@H](CCCNC(=N)N)C(=O)N[C@@H](Cc1ccc(O)cc1)C(=O)N[C@@H](Cc1ccc(O)cc1)C(=O)N[C@H](C(=O)N[C@@H](CO)C(=O)N[C@@H](CC(C)C)C(=O)N[C@@H](CCCNC(=N)N)C(=O)N[C@@H](Cc1c[nH]cn1)C(=O)N[C@@H](Cc1ccc(O)cc1)C(=O)N[C@@H](Cc1ccc(O)cc1)C(=O)N[C@@H](CC(N)=O)C(=O)N[C@@H](Cc1c[nH]c2ccccc12)C(=O)N[C@@H](CC(C)C)C(=O)N[C@H](C(=O)N[C@@H](CCCNC(=N)N)C(=O)N[C@@H](CCC(N)=O)C(=O)N[C@@H](CCCNC(=N)N)C(=O)N[C@@H](Cc1ccc(O)cc1)C(N)=O)[C@@H](C)O)C(C)C [Compound 61, N{alpha-4}-(3-methylbutanoyl)-N{epsilon-7}-[2-(2-{2-[2-(2-{2-[(4S)-4-carboxy-4-(17-carboxyheptadecanamido)butanamido]ethoxy}ethoxy)acetamido]ethoxy}ethoxy)acetamido]-[4A,7K,9P,17I,18Q,22V,28Y,30W,31L]hPYY (4-36)]"
